In brackets after ≈: the same amount, converted by molar mass. Entries after “also recorded” stand apart in the source; their conditions may differ. Counter-ions that a name gives are not always drawn. Like-named read-outs stand apart in the source and are kept apart here.
What was measured:
[1] = Gravimetric vapour sorption (GVS) isotherm; format: physicochemical; conditions: for GVS behaviour (dehydration, crystallisation, transformation) / hygroscopicity by GVS: 25° C.; for GVS behaviour (dehydration, crystallisation, transformation): RH as stated in the value; for GVS mass / total weight change: between 0-90% RH; for change in form / XRPD pattern post GVS analysis: XRPD after the isotherm; for water exchanged (GVS): between 0 and 90% RH; for hygroscopicity by GVS: subjected to humidity (various RH levels)
Method: Sorption isotherms were obtained using a SMS DVS Intrinsic moisture sorption analyser, controlled by DVS Intrinsic Control software v1.0.0.30. The sample temperature was maintained at 25° C. by the instrument controls. The humidity was controlled by mixing streams of dry and wet nitrogen, with a total flow rate of 200 ml/min The relative humidity was measured by a calibrated Rotronic probe (dynamic range of 1.0-100% RH), located near the sample. The weight change, (mass relaxation) of the sample as a function of % RH was constantly monitored by the microbalance (accuracy ±0.005 mg).
Typically 5-20 mg of sample was placed in a tared mesh stainless steel basket under ambient conditions. The sample was loaded and unloaded at 40% RH and 25° C. (typical room conditions). A moisture sorption isotherm was performed as outlined below (2 scans giving 1 complete cycle). The standard isotherm was performed at 25° C. at 10% RH intervals over a 0-90% RH range. Data analysis was undertaken in Microsoft Excel using DVS Analysis Suite v6.0.
The sample was recovered after completion of the isotherm and re-analyzed by XRPD.

[2] = Storage at elevated temperature/humidity, form checked by XRPD; format: physicochemical; conditions: for stability on storage: duration not given; for stability to moisture / humidity: exposure to humidity
[3] = Solubility of solid forms; format: physicochemical
[4] = Plasma pharmacokinetics in patients, oral once daily dosing; conditions: human, in vivo
Method: (§1) Patients aged ≥18 yrs with advanced solid tumors/lymphoma whose disease failed standard therapies received oral Compound 1 citrate (Form 1) daily (QD, 60-120 mg) in 28 day cycles. To determine the maximum tolerated dose, dose escalation proceeded via modified titration design based on dose limiting toxicity or any drug-related grade ≥2 adverse event (AE) during cycle 1. Blood samples for plasma pharmacokinetic assessments were collected pre-dose and post-dose on day 1 and day 15 of cycle 1. Response assessments per RECIST for solid tumors and per IWG criteria for lymphoma were performed between day 22 and day 29 (pre-dose) of cycle 2, 4 and 6, and every 3 cycles thereafter.

[5] = Safety and dose limiting toxicity in the dose escalation study in patients; format: in vivo, human
Method: as §1

[6] = system: advanced solid tumors/lymphoma; test: Response assessment (RECIST / IWG criteria) in patients; format: in vivo, human
Method: as §1

[7] = DLBCL, 60 mg QD, after 2 cycles

## Cn1cc(-c2nc(N[C@@H]3CCCC[C@@H]3N)c(F)c3c2C(=O)NC3)cn1 [Form 12]
[1]
  GVS behaviour (dehydration, crystallisation, transformation): Hysterisis was observed between 40 and 60% RH; also recorded: possibility of the transformation of Form 12 to a hydrated form
  GVS mass / total weight change: about 6%
[2]; 25° C./97% RH
  stability on storage: not stable
[2]; 40° C./75% RH
  stability on storage: No obvious stability issues were noted
[3]; water, pH 9.41, pH 9.41, read-out: aqueous solubility
  solubility: 580 µg/mL (≈ 1680 µM)

## Cn1cc(-c2nc(N[C@@H]3CCCC[C@@H]3N)c(F)c3c2C(=O)NC3)cn1 [Form 17]
[1]
  change in form / XRPD pattern post GVS analysis: no change in the XRPD pattern was noted
  water exchanged (GVS): 0.3 eq.
[2]; 25° C./97% RH
  stability on storage: stable
[2]; 40° C./75% RH
  stability on storage: stable
[3]; water, pH 9.33, pH 9.33, read-out: aqueous solubility
  solubility: 180 µg/mL (≈ 523 µM)

## Cn1cc(-c2nc(N[C@@H]3CCCC[C@@H]3N)c(F)c3c2C(=O)NC3)cn1 [Form 3, 6-(((1R,2S)-2-aminocyclohexyl)amino)-7-fluoro-4-(1-methyl-1H-pyrazol-4-yl)-1H-pyrrolo[3,4-c]pyridin-3(2H)-one hydrochloride dihydrate]
[1]; hydrochloride dihydrate
  GVS behaviour (dehydration, crystallisation, transformation): subject to dehydration below 20% RH
  change in form / XRPD pattern post GVS analysis: No change in form was observed
[2]; 25° C./97% RH for 1 week
  change in form after storage: No change in form was observed
[2]; 40° C./75% RH for 1 week
  change in form after storage: No change in form was observed

## Cn1cc(-c2nc(N[C@@H]3CCCC[C@@H]3N)c(F)c3c2C(=O)NC3)cn1 [Form 15]
[1]
  change in form / XRPD pattern post GVS analysis: no change in the XRPD pattern was noted
  GVS mass / total weight change: 2.0%
  water exchanged (GVS): 0.4 eq.
[2]; 25° C./97% RH
  stability on storage: stable
[2]; 40° C./75% RH
  stability on storage: stable
[3]; pH 9.41
  aqueous solubility: 710 µg/mL (≈ 2060 µM)

## Cn1cc(-c2nc(N[C@@H]3CCCC[C@@H]3N)c(F)c3c2C(=O)NC3)cn1 [Form 8]
[1]
  GVS behaviour (dehydration, crystallisation, transformation): minimal weight variation between 10 and 90% RH

## Cn1cc(-c2nc(N[C@@H]3CCCC[C@@H]3N)c(F)c3c2C(=O)NC3)cn1 [Form 16]
[1]
  GVS behaviour (dehydration, crystallisation, transformation): dehydration below 30% RH; also recorded: stable at and above 30% RH at 25 °C and desolvated below 30% RH
[2]; 25° C./97% RH
  stability on storage: No changes in the XRPD pattern were observed
[2]; 40° C./75% RH
  stability on storage: No changes in the XRPD pattern were observed
[3]; water, pH 9.27, pH 9.27, read-out: aqueous solubility
  solubility: 130 µg/mL (≈ 377 µM)

## Cn1cc(-c2nc(N[C@@H]3CCCC[C@@H]3N)c(F)c3c2C(=O)NC3)cn1 [Form 13]
[1]
  hygroscopicity by GVS: not hygroscopic
  change in form / XRPD pattern post GVS analysis: no transformation to hydrates was observed
  GVS mass / total weight change: less than 0.6%
[2]; 25° C./97% RH
  stability on storage: stable
[2]; 40° C./75% RH
  stability on storage: stable
[3]; water, pH 9.05, pH 9.05, read-out: aqueous solubility
  solubility: 190 µg/mL (≈ 552 µM)

## Cn1cc(-c2nc(N[C@@H]3CCCC[C@@H]3N)c(F)c3c2C(=O)NC3)cn1 [Form 5]
[1]
  hygroscopicity by GVS: not hygroscopic
  change in form / XRPD pattern post GVS analysis: did not change form
[2]; 40° C./97% RH for 10 days
  change in form during storage: did not change form
[2]
  stability to moisture / humidity: stable to moisture
[3]; medium not given, read-out: solubility
  solubility: 11000 µg/mL (≈ 31900 µM)

## Cn1cc(-c2nc(N[C@@H]3CCCC[C@@H]3N)c(F)c3c2C(=O)NC3)cn1 [Form 4]
[1]
  hygroscopicity by GVS: not hygroscopic; also recorded: non-hygroscopic
[2]; 25° C./97% RH for 10 days
  change in form during storage: did not change form
[2]; 40° C./75% RH for 10 days
  change in form during storage: did not change form
[2]; 40° C./97% RH for 10 days
  change in form during storage: did not change form
[2]
  stability to moisture / humidity: stable to moisture

## Cn1cc(-c2nc(N[C@@H]3CCCC[C@@H]3N)c(F)c3c2C(=O)NC3)cn1 [Form 2]
[1]
  GVS behaviour (dehydration, crystallisation, transformation): adsorbs moisture in the range of 40-80% relative humidity (RH) and undergoes a crystallization event above 80% RH; also recorded: undergoes a crystallisation event above 80% RH
  change in form / XRPD pattern post GVS analysis: transformation to Form 1
[1]; between 80% and 90% RH
  GVS weight loss accompanying crystallization: 7%
[1]; range of 40-80% RH
  moisture adsorbed (GVS): 9 % w/w

## Cn1cc(-c2nc(N[C@@H]3CCCC[C@@H]3N)c(F)c3c2C(=O)NC3)cn1 [Form 7]
[1]; RH range not given
  GVS water uptake: 10.5%
[2]
  stability to moisture / humidity: unstable to humidity and converted back to a hydrated form (Form 9)

## Cn1cc(-c2nc(N[C@@H]3CCCC[C@@H]3N)c(F)c3c2C(=O)NC3)cn1 [Compound 1 citrate, 6-(((1R,2S)-2-aminocyclohexyl)amino)-7-fluoro-4-(1-methyl-1H-pyrazol-4-yl)-1H-pyrrolo[3,4-c]pyridin-3(2H)-one citrate]
[1]; citrate
  hygroscopicity by GVS: non hygroscopic

## Cn1cc(-c2nc(N[C@@H]3CCCC[C@@H]3N)c(F)c3c2C(=O)NC3)cn1 [Form 1]
[1]
  hygroscopicity by GVS: not hygroscopic
  change in form / XRPD pattern post GVS analysis: No change in form was observed
  GVS mass / total weight change: less than 0.3%
[1]; RH range not printed at the place
  GVS variation: less than 0.3 % w/w
[2]; 25° C./97% RH for 1 week
  change in form after storage: No change in form was observed
[2]; 40° C./75% RH for 1 week
  change in form after storage: No change in form was observed
[4]; 15 days
  mean accumulation: 2.7 fold
[4]; po, 120 mg
  coefficient of variation for dl 5 AUCtau (variability in steady-state exposures): 47%
[4]; plasma, 11 patients at 60 and 120 mg oral QD, read-out: median Tmax
  Tmax: 2 h
[5]; 60 mg QD
  patients died on study (deaths not related to study drug): 3
[5]; 120 mg QD
  patients died on study (deaths not related to study drug): 1 patient
[5]; human, in vivo
  patients discontinued due to adverse events: 3 patients
[5]; overall, 15 patients
  patients died on study (deaths not related to study drug): 4 patients
[6]; 60 mg QD, after 2 cycles, 5 response-evaluable patients (4 DLBCL)
  DLBCL patients showing signs of response: 2 patients
[6]; [7]
  patients with partial response: 1
  tumor reduction in 1 patient: 25%
[6]; DLBCL, 80 mg, after 1 cycle, post data cut-off
  patients achieving partial response: 1 patient

## Cn1cc(-c2nc(N[C@@H]3CCCC[C@@H]3N)c(F)c3c2C(=O)NC3)cn1 [Form 14]
[1]
  change in form / XRPD pattern post GVS analysis: no change in the XRPD pattern was noted
  GVS mass / total weight change: 1.5%
  water exchanged (GVS): 0.25 eq.
[2]; 25° C./97% RH
  stability on storage: stable
[2]; 40° C./75% RH
  stability on storage: stable

## Cn1cc(-c2nc(N[C@@H]3CCCC[C@@H]3N)c(F)c3c2C(=O)NC3)cn1 [Compound 1 free base, 6-((1R,2S)-2-aminocyclohexylamino)-7-fluoro-4-(1-methyl-1H-pyrazol-4-yl)-1H-pyrrolo[3,4-c]pyridine-3(2H)-one]
[1]
  GVS behaviour (dehydration, crystallisation, transformation): the methanol solvate desolvated, however, the anhydrous form was found to be stable
[2]; 40° C./75% RH
  stability on storage: the methanol solvate desolvated, however, the anhydrous form was found to be stable

## Cn1cc(-c2nc(N[C@@H]3CCCC[C@@H]3N)c(F)c3c2C(=O)NC3)cn1 [Form 6]
[1]
  GVS behaviour (dehydration, crystallisation, transformation): adsorbs moisture and undergoes a crystallisation event above 70% RH
[1]; between 40-60% RH
  GVS water uptake: 5 % w/w
[1]; between 70-90% RH
  GVS weight loss: 3%
[2]
  stability to moisture / humidity: seems to undergo a phase transformation, possibly leading to Form 9

— patent publication US10676473B2, “Solid state forms of fused heteroaromatic pyrrolidinones” (TAKEDA PHARMACEUTICAL COMPANY LIMITED, priority 2014, dated 2020)
